pIC50: −log10 of the molar value. Where two headings read alike, the source gives them in different places.
Legend:
[1] = system: HPAF-II cells; assay: HPAF-II Cell Proliferation Assay; type: cell-based; settings: HPAF-II cells, Table 2, read-out: Inhibition of cell proliferation in HPAF-II (IC50 class)
Experimental: (§1) HPAF-II cells (catalog #CRL-1997) are obtained from the American Type Culture Collect (ATCC, Manassas, VA). Briefly, cells are grown in Minimum Essential Media supplemented with 10% characterized fetal bovine serum (Invitrogen, Carlsbad, CA) and 1% Penicillin/Streptomycin/L-Glutamine at 37° C., 5% CO2, and 95% humidity. Cells are expanded until reaching 70-95% confluency at which point they are sub-cultured or harvested for assay use. A serial dilution of test compound is dispensed into a 384-well black clear bottom plate in triplicate. 750 cells are added per well in 50 μL complete growth medium in the 384-well plate. Plates are incubated for 115 to 120 hours at 37° C., 5% CO2, and 95% humidity. At the end of the incubation, 40 μL of a 440 μM solution of resazurin (Sigma, St. Louis, MO) in PBS is added to each well of the plate and plates are incubated for an additional 18 to 24 hours at 37° C., 5% CO2, and 95% humidity. Plates are read on a Synergy2 or equivalent reader (Biotek, Winooski, VT) using an excitation of 540 nm and an emission of 600 nm. Data is analyzed using Prism software (Graphpad, San Diego, CA) to calculate IC50 values.

[2] = system: HCT-116 cells; assay: HCT-116 Cell Proliferation Assay; type: cell-based; settings: Table 2, read-out: Inhibition of cell proliferation in HCT-116 (IC50 class)
Experimental: HCT-116 cells (catalog #CCL-247) are obtained from the American Type Culture Collect (ATCC, Manassas, VA). Briefly, cells are grown in McCoy's 5A supplemented with 10% characterized fetal bovine serum (Invitrogen, Carlsbad, CA) and 1% Penicillin/Streptomycin/L-Glutamine at 37° C., 5% CO2, and 95% humidity. Cells are expanded until reaching 70-95% confluency at which point they are subcultured or harvested for assay use. A serial dilution of test compound is dispensed into a 384-well black clear bottom plate in triplicate. 375 cells are added per well in 50 μL complete growth medium in the 384-well plate. Plates are incubated for 67 to 72 hours at 37° C., 5% CO2, and 95% humidity. At the end of the incubation, 40 μL of a […] solution of resazurin (Sigma, St. Louis, MO) in PBS is added to each well of the plate and plates are incubated for an additional 4 to 5 h at 37° C., 5% CO2, and 95% humidity. Plates are read on a Synergy2 or equivalent reader (Biotek, Winooski, VT) using an excitation of 540 nm and an emission of 600 nm. Data is analyzed using Prism software (Graphpad, San Diego, CA) to calculate IC50 values.

[3] = target: T1, B-Raf kinase (SEQ ID NO: 1) (Homo sapiens, UniProt P15056); assay: Biochemical Assay for B-Raf (coupled pyruvate kinase/lactate dehydrogenase assay); settings: 1 mM ATP; read-out: BRAF (inhibition of biochemical activity, IC50)
T1 construct: GST (N); purchased Sigma

[4] = system: Pa16c cells; assay: Pa16c Cell Proliferation Assay; type: cell-based; settings: Table 2, read-out: Inhibition of cell proliferation in Pa16c (IC50 class)
Experimental: as §1, with “Pa16c” for “HPAF-II”, “cells” for “cells (catalog #CRL-1997)”, “Dr. Channing Der, University of North Carolina at Chapel Hill.” for “the American Type Culture Collect (ATCC, Manassas, VA).”, “Dulbecco's Modified Eagle Medium” for “Minimum Essential Media”, “67” for “115”, “72 h” for “120 hours”

[5] = target: T2, C-Raf kinase (SEQ ID NO: 2) (Homo sapiens, UniProt P04049, Y340D/Y341D); assay: Biochemical Assay for C-Raf (coupled pyruvate kinase/lactate dehydrogenase assay); settings: 1 mM ATP; read-out: CRAF (inhibition of biochemical activity, IC50)
T2 construct: C-Raf residues 306-end; Y340D, Y341D with; GST (N); purchased Sigma

[6] = system: MiaPaca-2 cells; assay: MiaPaca-2 Cell Proliferation Assay; type: cell-based; settings: Table 2, read-out: Inhibition of cell proliferation in MiaPaca-2 (IC50 class)
Experimental: Miapaca-2 cells (catalog #CRL-1420) are obtained from the American Type Culture Collect (ATTC, Manassas, VA). Briefly, cells were grown in DMVEM supplemented with 10 characterized fetal bovine serum (Invitrogen, Carlsbad, CA), 2.5% New Zealand sourced horse serum and 1 Penicillin/Streptomycin/L-Glutamine at 37° C., 5 CO2, and 95% humidity. Cells are expanded until reaching 70-95% confluency at which point they are sub-cultured or harvested for assay use. A serial dilution of test compound is dispensed into a 96-well black clear bottom plate in triplicate. Three thousand cells are added per well in 200 μL complete growth medium in the 96-well plate. Plates are incubated for 67 to 72 h at 37° C., 5% CO2, and 95% humidity. At the end of the incubation, 40 μL of a 440 μM solution of resazurin (Sigma, St. Louis, MO) in PBS is added to each well of the plate and plates are incubated for an additional 5 to 6 h at 37° C., 5% CO2, and 95% humidity. Plates are read on a Synergy2 or equivalent reader (Biotek, Winooski VT) using an excitation of 540 nm and an emission of 600 nm. Data is analyzed using Prism software (Graphpad, San Diego, CA) to calculate IC50 values.

[7] = Homo sapiens, HCT-116, HCT-116 cells
[8] = Homo sapiens, MIA PaCa-2, MiaPaca-2 cells

T2 sequence (P04049 307-648 Y340D/Y341D): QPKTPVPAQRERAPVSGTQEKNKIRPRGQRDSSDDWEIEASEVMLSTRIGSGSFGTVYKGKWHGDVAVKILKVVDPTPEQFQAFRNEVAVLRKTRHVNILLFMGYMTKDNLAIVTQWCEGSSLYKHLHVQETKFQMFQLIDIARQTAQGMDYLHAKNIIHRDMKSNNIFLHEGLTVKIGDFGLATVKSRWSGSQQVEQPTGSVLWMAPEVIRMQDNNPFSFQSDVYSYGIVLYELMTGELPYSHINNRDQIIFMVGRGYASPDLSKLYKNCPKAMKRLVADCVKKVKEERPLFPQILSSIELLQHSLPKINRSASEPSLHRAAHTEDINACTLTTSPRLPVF
T1 sequence (P15056 416-766): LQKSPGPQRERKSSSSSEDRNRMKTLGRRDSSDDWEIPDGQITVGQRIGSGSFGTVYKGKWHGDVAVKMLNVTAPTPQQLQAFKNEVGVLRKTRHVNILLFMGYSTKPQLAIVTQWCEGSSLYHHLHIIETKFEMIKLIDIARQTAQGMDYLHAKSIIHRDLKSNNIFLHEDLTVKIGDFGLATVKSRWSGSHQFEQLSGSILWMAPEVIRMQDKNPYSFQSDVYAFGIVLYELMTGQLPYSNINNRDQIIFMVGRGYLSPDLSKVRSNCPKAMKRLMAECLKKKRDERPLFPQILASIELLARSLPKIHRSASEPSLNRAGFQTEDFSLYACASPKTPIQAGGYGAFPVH

pIC50 [2, 7] | pIC50 [3] | pIC50 [5] | pIC50 [6, 8] | pIC50 ([2]; HCT-116 cells) | SMILES | pIC50 ([1]; Homo sapiens, HPAF-II) | pIC50 [4] | pIC50 [1] | pIC50 ([6]; MiaPaca-2 cells)
> 7.00 | 5.00 to 6.00 | 6.00 to 6.30 | 6.30 to 7.00 |  | Cc1ccc(NC(=O)c2cc(C(C)(F)F)cnn2)cc1-c1ccnc(-c2ccsc2)c1 [Example 148] | 6.30 to 7.00 | 6.30 to 7.00 |  | 
 | > 7.00 | > 7.00 |  | 5.00 to 6.00 | COC(=O)Nc1cc(-c2cncc(-c3cc(NC(=O)c4ccc(C(F)(F)F)nc4)ccc3C)c2)ncn1 [Example 76] |  | 5.00 to 6.00 | 5.00 to 6.00 | 5.00 to 6.00
> 7.00 | 6.30 to 7.00 | > 7.00 | > 7.00 |  | COC(=O)Nc1cc(-c2cncc(-c3cc(NC(=O)c4ccc(C(F)(F)F)nc4)c(F)cc3C)c2)ccn1 [Example 3, methyl (5-(4-fluoro-2-methyl-5-(6-(trifluoromethyl)nicotinamido)phenyl)-[3,4′-bipyridin]-2′-yl)carbamate] |  |  |  | 
6.30 to 7.00 | > 7.00 | > 7.00 | 6.00 to 6.30 |  | Cc1ccc(NC(=O)c2ccc(C(F)F)nc2)cc1-c1ccnc(-c2ccnc(NC(=O)C3CC3)c2)c1 [Example 25] |  |  |  | 
 | 6.30 to 7.00 | > 7.00 | 6.30 to 7.00 |  | CC(=O)Nc1cc(-c2nccc(-c3cc(NC(=O)c4ccc(C(F)F)nc4)ccc3C)n2)ccn1 [Example 14] |  |  |  | 
 | 6.00 to 6.30 | 6.00 to 6.30 | 5.00 to 6.00 |  | Cc1ccc(NC(=O)c2ccc(C(F)(F)F)nc2)cc1-c1cncc(-c2cc(N)ncn2)c1 [Example 73] |  |  |  | 
6.30 to 7.00 |  |  | 6.30 to 7.00 |  | Cc1ccc(NC(=O)c2cc(C(F)(F)F)cnn2)cc1-c1ccnc(-c2cnsc2)c1 [Example 132] | 6.30 to 7.00 | 6.30 to 7.00 |  | 
 | 6.00 to 6.30 | > 7.00 | 5.00 to 6.00 |  | COC(=O)Nc1cc(-c2cccc(-c3cc(NC(=O)c4ccc(C(F)(F)F)nc4)cnc3C)c2)ncn1 [Example 33] |  |  |  | 
 | 5.00 to 6.00 | 6.00 to 6.30 | > 7.00 |  | COC(=O)Nc1cc(-c2cc(-c3cc(NC(=O)c4ccc(C(F)(F)F)nc4)c(F)cc3C)nc(C)n2)ccn1 [Example 21] |  |  |  | 
 | 6.30 to 7.00 | > 7.00 | 6.00 to 6.30 |  | CC(=O)Nc1cc(-c2cccc(-c3cc(NC(=O)c4ccc(C(F)F)nc4)ccc3C)n2)ccn1 [Example 85] |  |  |  | 
 | 5.00 to 6.00 | 5.00 to 6.00 | 5.00 to 6.00 |  | CC(=O)Nc1cc(-c2cc(-c3cc(NC(=O)c4ccc(C(F)(F)F)nc4)ccc3C)nn(C)c2=O)ccn1 [Example 12] |  |  |  | 
 | 5.00 to 6.00 | 6.30 to 7.00 | 5.00 to 6.00 |  | COC(=O)Nc1cc(-c2cc(-c3cc(NC(=O)c4ccc(C(F)(F)F)nc4)cnc3C)ccn2)ccn1 [Example 31] |  |  |  | 
 | 6.30 to 7.00 | > 7.00 | 5.00 to 6.00 |  | CC(=O)Nc1cc(-c2cc(-c3cc(NC(=O)c4ccc(C(F)(F)F)nc4)ccc3C)cn(C)c2=O)ccn1 [Example 28] |  |  |  | 
6.30 to 7.00 | 6.30 to 7.00 | > 7.00 | 6.30 to 7.00 |  | Cc1ccc(NC(=O)c2cc(C(F)(F)F)cnn2)cc1-c1cc(N[C@H](C)CO)nc(-c2c[nH]nc2N)c1 [Example 153] | 5.00 to 6.00 |  |  | 

Continued, compound first:

SMILES | pIC50 [2, 7] | pIC50 [3] | pIC50 [5] | pIC50 [6, 8] | pIC50 ([2]; HCT-116 cells) | pIC50 ([1]; Homo sapiens, HPAF-II) | pIC50 [4] | pIC50 [1] | pIC50 ([6]; MiaPaca-2 cells)
COC(=O)Nc1cc(-c2cncc(-c3cc(NC(=O)c4ccc(C(F)(F)F)nc4)ccc3C)c2)ccn1 [Example 74] |  | 6.30 to 7.00 | > 7.00 | 6.30 to 7.00 |  |  |  |  | 
Cc1ccc(NC(=O)c2cc(C(F)(F)F)cnn2)cc1-c1cc(N[C@H](C)CO)nc(-c2c(C)n[nH]c2C)c1 [Example 122] | 6.30 to 7.00 | 6.30 to 7.00 | > 7.00 | 6.30 to 7.00 |  | 6.00 to 6.30 | 6.30 to 7.00 |  | 
Cc1ccc(NC(=O)c2cncc(C(F)(F)F)n2)cc1-c1ccnc(-c2ccnc(NC(=O)C3CC3)c2)c1 [Example 84] | 5.00 to 6.00 | > 7.00 | > 7.00 | 5.00 to 6.00 |  | 5.00 to 6.00 | 5.00 to 6.00 |  | 
Cc1ccc(NC(=O)c2ccc(C(F)F)nc2)cc1-c1ccnc(-c2ccnc(NC(=O)C3CC3)c2)n1 [Example 70] | 6.30 to 7.00 | > 7.00 | > 7.00 | 6.30 to 7.00 |  | 6.30 to 7.00 | 5.00 to 6.00 |  | 
Cc1ccc(NC(=N)c2cc(C(F)(F)F)cnn2)cc1-c1ccnc(-c2ccnc(NC(=O)C3CC3)c2)c1 [Example 86] | 5.00 to 6.00 | 6.30 to 7.00 | > 7.00 | 5.00 to 6.00 |  | 5.00 to 6.00 | 5.00 to 6.00 |  | 
Cc1ccc(NC(=O)c2cc(C#N)cnn2)cc1-c1cc(N[C@H](C)CO)nc(-c2cn[nH]c2)c1 [Example 152] | 6.30 to 7.00 | 6.30 to 7.00 | 6.30 to 7.00 | > 7.00 |  | 6.00 to 6.30 |  |  | 
COC(=O)Nc1cc(-c2nccc(-c3cc(NC(=O)c4ccc(C(F)(F)F)nc4)ccc3C)n2)ccn1 [Example 30] |  | 5.00 to 6.00 | > 7.00 |  |  |  |  |  | 5.00 to 6.00
COC(=O)Nc1cc(-c2cccc(-c3cc(NC(=O)c4ccc(C(F)(F)F)nc4)cnc3C)c2)ccn1 [Example 32] |  | 6.30 to 7.00 | > 7.00 | 6.00 to 6.30 |  |  |  |  | 
COCC(=O)Nc1cc(-c2cncc(-c3cc(NC(=O)c4ccc(C(F)F)nc4)ccc3C)n2)ccn1 [Example 89] | 5.00 to 6.00 | 5.00 to 6.00 | 6.30 to 7.00 | 5.00 to 6.00 |  |  |  |  | 
CC(=O)Nc1cc(-c2cc(-c3cc(NC(=O)c4ccc(C(F)(F)F)nc4)ccc3C)cn(CCO)c2=O)ccn1 [Example 29] |  | 5.00 to 6.00 | 5.00 to 6.00 | 5.00 to 6.00 |  |  |  |  | 
COC(=O)Nc1cc(-c2cc(-c3cc(NC(=O)c4ccc(C(F)(F)F)nc4)ccc3C)cc(OCCO)n2)ccn1 [Example 77] |  | > 7.00 | > 7.00 |  |  |  |  |  | 5.00 to 6.00

Source: patent US20260226084A1, “DUAL RAF AND TUBULIN INHIBITORS AND METHODS OF USE THEREOF” (Deciphera Pharmaceuticals, LLC, priority 2023, published 2026)
